Assay results taken from ChEMBL document CHEMBL1139264 (Bioorg Med Chem Lett, 2009).

Columns and labels:
[1] = target: Estrogen receptor beta (Homo sapiens) (UniProt Q92731); assay: Binding affinity to human ERbeta receptor relative to estrogen
Estrogen receptor = target: T1, Estrogen receptor (Homo sapiens, UniProt P03372)
T1 sequence (P03372 whole entry): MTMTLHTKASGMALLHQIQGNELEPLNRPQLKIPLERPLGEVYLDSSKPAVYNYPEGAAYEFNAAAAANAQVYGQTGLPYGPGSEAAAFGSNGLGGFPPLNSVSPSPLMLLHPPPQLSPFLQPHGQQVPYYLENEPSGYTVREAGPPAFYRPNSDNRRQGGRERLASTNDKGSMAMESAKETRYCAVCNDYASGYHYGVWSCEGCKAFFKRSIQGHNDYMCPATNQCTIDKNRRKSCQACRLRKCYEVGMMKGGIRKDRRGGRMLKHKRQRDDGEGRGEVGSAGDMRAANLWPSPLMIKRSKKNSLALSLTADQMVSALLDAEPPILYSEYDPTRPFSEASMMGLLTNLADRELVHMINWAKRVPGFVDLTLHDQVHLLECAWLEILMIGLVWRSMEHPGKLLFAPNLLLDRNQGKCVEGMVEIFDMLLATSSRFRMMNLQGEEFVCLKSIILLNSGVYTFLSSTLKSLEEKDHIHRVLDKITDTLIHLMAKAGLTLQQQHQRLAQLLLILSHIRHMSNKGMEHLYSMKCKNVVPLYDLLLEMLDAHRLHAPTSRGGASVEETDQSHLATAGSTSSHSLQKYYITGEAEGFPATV
Description: Antagonist activity at human ERalpha receptor expressed in HEC1 cells assessed as transcriptional activation after 24 hrs by luciferase reporter gene assay

Sequence of Estrogen receptor beta (Homo sapiens) (Q92731 whole entry): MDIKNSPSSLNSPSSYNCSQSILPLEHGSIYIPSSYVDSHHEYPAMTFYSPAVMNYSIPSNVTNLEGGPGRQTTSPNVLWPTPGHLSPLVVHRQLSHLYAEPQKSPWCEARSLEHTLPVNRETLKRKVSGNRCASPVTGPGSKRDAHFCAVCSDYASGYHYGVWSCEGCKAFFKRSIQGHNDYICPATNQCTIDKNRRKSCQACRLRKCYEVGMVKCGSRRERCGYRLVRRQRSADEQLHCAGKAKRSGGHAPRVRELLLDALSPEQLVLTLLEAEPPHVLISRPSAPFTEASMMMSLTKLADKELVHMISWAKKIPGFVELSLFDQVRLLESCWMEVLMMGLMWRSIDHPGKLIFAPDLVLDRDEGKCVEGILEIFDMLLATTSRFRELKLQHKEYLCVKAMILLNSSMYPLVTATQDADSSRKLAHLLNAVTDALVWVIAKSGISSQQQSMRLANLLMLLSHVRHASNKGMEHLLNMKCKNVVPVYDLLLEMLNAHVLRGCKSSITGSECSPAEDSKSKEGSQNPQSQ

Row | SMILES | Activity [1] [%] | IC50 (Estrogen receptor) [nM]
1 | Cc1c(-c2ccc(O)cc2)nn(-c2ccc(O)cc2)c1-c1ccc(/C=C/C(=O)N2CCCCC2)cc1 | 0.015 | 1000
2 | Cc1c(-c2ccc(O)cc2)nn(-c2ccc(O)cc2)c1-c1ccc(OCCN2CCCCC2)cc1 | 0.05 | 
3 | Cc1c(-c2ccc(O)cc2)nn(-c2ccc(O)cc2)c1-c1ccc(CCCN2CCCCC2)cc1 | 0.016 | 20
4 | Cc1c(-c2ccc(O)cc2)nn(-c2ccc(O)cc2)c1-c1ccc(O)cc1 | 0.039 | 
